Data published in PubChem BioAssay (NCI).
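Cells were grown in 96-well plates and exposed to each compound for 48 hours at five concentrations; endpoints were interpolated linearly between bracketing concentrations, or set to the highest concentration if not reached. GI50: concentration for 50% inhibition of growth. TGI is the concentration that stops growth completely.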

Columns and labels:
Assay in all cases: inhibition of tumour cell growth, NCI panel, 48 h
CAKI-1 renal = test system: CAKI-1 renal
EKVX NSCLC = test system: EKVX NSCLC
HT29 colon = test system: HT29 colon
M14 melanoma = test system: M14 melanoma
NCI-H522 lung = test system: NCI-H522 lung
NCI/ADR-RES ovarian = test system: NCI/ADR-RES ovarian
SF-295 CNS = test system: SF-295 CNS
SF-539 CNS = test system: SF-539 CNS
SNB-19 CNS = test system: SNB-19 CNS
T-47D breast = test system: T-47D breast

| SMILES | GI50 (CAKI-1 renal) [µM] | TGI (CAKI-1 renal) [µM] | GI50 (EKVX NSCLC) [µM] | TGI (EKVX NSCLC) [µM] | GI50 (HT29 colon) [µM] | TGI (HT29 colon) [µM] | GI50 (M14 melanoma) [µM] | TGI (M14 melanoma) [µM] | GI50 (NCI-H522 lung) [µM] | TGI (NCI-H522 lung) [µM] | GI50 (NCI/ADR-RES ovarian) [µM] | TGI (NCI/ADR-RES ovarian) [µM] | GI50 (SF-295 CNS) [µM] | TGI (SF-295 CNS) [µM] | GI50 (SF-539 CNS) [µM] | TGI (SF-539 CNS) [µM] | GI50 (SNB-19 CNS) [µM] | TGI (SNB-19 CNS) [µM] | GI50 (T-47D breast) [µM] | TGI (T-47D breast) [µM] |
| --- | --- | --- | --- | --- | --- | --- | --- | --- | --- | --- | --- | --- | --- | --- | --- | --- | --- | --- | --- | --- |
| CC(=O)O[C@H]([C@H](OC(C)=O)[C@H](C)OC(C)=O)[C@@H](/C=C/[C@H]1CC=CC(=O)O1)OC(C)=O | 79.7 | > 100 | > 100 | > 100 | 55.8 | > 100 | 67.3 | > 100 | 15.6 | 36.2 | > 100 | > 100 | 20.6 | 59.8 | 37.2 | > 100 | 80.5 | > 100 | 38.3 | > 100 |
| NS(=O)(=O)c1cc2c(cc1Cl)NCNS2(=O)=O | – | > 100 | – | > 100 | – | > 100 | – | > 100 | – | > 100 | – | > 100 | – | > 100 | – | > 100 | – | > 100 | – | > 100 |
| O=C1C[C@@H]2OCC=C3C[N+]4([O-])CC[C@]56c7ccccc7N1[C@H]5[C@H]2[C@H]3C[C@@H]64 (stereo not given in full) | > 100 | > 100 | > 100 | > 100 | > 100 | > 100 | > 100 | > 100 | > 100 | > 100 | > 100 | > 100 | > 100 | > 100 | > 100 | > 100 | > 100 | > 100 | > 100 | > 100 |
| CCCCCCCCCCN=C(N)c1ccc(N2CCN(c3ccc(C(N)=NCCCCCCCCCC)cc3)CC2)cc1 | 17.9 | > 50 | 4.44 | 21.1 | 3.37 | > 50 | 18 | > 50 | 3.75 | > 50 | > 50 | > 50 | 1.81 | 6.12 | 1.72 | 6.76 | 3.02 | 19.1 | 5.91 | 18.8 |
| O=C1NC(c2ccccc2Cl)Nc2ccccc21 (stereo not given) | – | 91.8 | – | > 100 | – | > 100 | – | > 100 | – | 72.1 | – | 27.5 | – | > 72.3 | – | 32.6 | – | > 74 | – | > 100 |
| Oc1c(Br)cc(Cl)cc1C(c1cc(Cl)cc(Br)c1O)C(Cl)(Cl)Cl | 2.09 | 8.73 | 2.72 | 11.3 | 3.26 | 10.6 | 3.74 | 12.8 | 1.86 | 6.07 | 2.48 | 8.66 | 1.59 | 5.29 | 3.15 | 10.7 | 3.13 | 15.9 | 2.84 | 11.1 |
| COc1cc2c(cc1C)NC(=O)/C2=C\c1ccc(Oc2ccccc2)cc1 | 17 | 33 | 12.9 | 27 | 12.2 | 25.6 | 15.1 | 29.2 | 12.4 | 42 | 17.4 | 36.5 | 17 | 36.8 | 17.9 | 32.7 | 17.8 | 32.9 | 15.1 | 48.4 |
| O=S(=O)(Nc1ccccc1)c1ccc(C2CC3(Cl)C(Cl)=C(Cl)C2(Cl)C3(Cl)Cl)cc1 (stereo not given) | 2.16 | 6.27 | 3.02 | 8.37 | 2.37 | 5.41 | 2.19 | 4.61 | 2.27 | 5.67 | 2.95 | 7.98 | 2.21 | 5.97 | 2.32 | 5.79 | 3.74 | 13.6 | 2.54 | 6.82 |
| COc1cc(/C=C/C(=O)c2nc3cc(F)ccc3nc2C)cc(OC)c1OC | 7.42 | > 100 | > 78.7 | > 100 | 3.75 | > 100 | > 43.2 | > 100 | 6.98 | > 100 | 14.2 | > 91.1 | > 25.2 | > 100 | > 100 | > 100 | > 51.1 | > 100 | 4.91 | > 100 |
| Cn1cc(-c2ccc3c(c2)ncn3-c2cc(NS(=O)(=O)C3CC3)cc(-c3ccc(F)cc3F)c2)cn1 | 3.77 | > 100 | 21.3 | > 100 | 10.3 | 38.3 | 14.9 | > 100 | 10.6 | 64.9 | 13.6 | > 100 | 8.18 | 37.2 | 1.37 | 12.7 | 9.46 | > 100 | 7.39 | 62.8 |
